Data on eleven compounds can be found in ChEMBL document CHEMBL1201862, “PubChem BioAssay data set” (2004).

Structures are written as SMILES.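 Dose response: 5 concentrations. Exposure: 48 h. Format: 96-well plates. Endpoint: linear interpolation; highest concentration if not reached. GI50 = concentration required for 50% inhibition of growth.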 Activity calls are given as the source filed them. Cut-off read from the data, not from the text of the source: active = GI50 up to about 1.1 µM and inactive = higher. Some results are limits rather than exact numbers.

Common to all, as to experiment: inhibition of tumour cell growth, NCI panel, 48 h
Test [1] concerns EKVX.
Test [2] has as its system KM12.
Test [3] relates to MDA-N.
Test [4] deals with Malme-3M.
The test system of test [5] is MDA-MB-435.
In test [6] the test system is NCI-H23.
For test [7], the system named is UACC-257.
In test [8] the test system is ACHN.
Test [9] has as its system SNB-75.
In test [10] the test system is M14.
The subject of test [11] is HCT-116.
Test [12] has as its system LOX IMVI.
For test [13], the system named is SF-539.
The subject of test [14] is SF-268.
For test [15], the system named is SW-620.
The test system of test [16] is SK-MEL-5.
The subject of test [17] is NCI/ADR-RES.
Test [18] has as its system COLO 205.
Test [19] has as its system MDA-MB-231.
Test [20] relates to SR.

For `CCCCCCOc1ccc(NC2=C(Cl)C(=O)c3cccnc3C2=O)cc1`, the GI50 is 1.67 µM (inactive) in test [1]; 1.61 µM (inactive) in test [2]; 1.59 µM (inactive) in test [3]; 2.3 µM (inactive) in test [4]; 1.75 µM (inactive) in test [5]; 1.74 µM (inactive) in test [6]. Besides, the GI50 was 2.25 µM (inactive) in [7]; 2.1 µM (inactive) in test [8]; 1 µM (active) in [9]; 1.3 µM (inactive) in test [10]; 0.895 µM (active) in test [11]; 1.36 µM (inactive) in test [12]. For the same compound, the GI50 was 2.09 µM (inactive) in [13], 2.11 µM (inactive) in [14], 1.54 µM (inactive) in [15] and 1.11 µM (active) in test [16].

Turning to `COc1cc2c3c4[n+](cc2c(OC)c1OC)CCC4CCC3` (stereo unspecified), the GI50 in [17] is > 100 µM (inactive); in test [1] it was > 100 µM (inactive); in test [2], 47.4 µM (inactive); in [18], 34.7 µM (inactive); in test [3], > 100 µM (inactive); in test [4], 20.4 µM (inactive). Besides, the GI50 was > 100 µM (inactive) in test [5]; 98.9 µM (inactive) in test [6]; 57.3 µM (inactive) in test [7]; > 100 µM (inactive) in test [8]; > 100 µM (inactive) in test [10]; > 100 µM (inactive) in [11]. Further, the GI50 is > 100 µM (inactive) in [12]; > 100 µM (inactive) in test [13]; > 100 µM (inactive) in test [14]; > 100 µM (inactive) in test [15]; > 100 µM (inactive) in [19]; 21.6 µM (inactive) in test [16].

Take `COc1ccc2c(c1)c1c(n2CCN(C)C)-c2cccc(OC)c2CC1`: the GI50 in [17] was 17.5 µM (inactive); in test [1], 14.4 µM (inactive); in test [2] it was 11.2 µM (inactive); in [18], 6.62 µM (inactive); in [3] it was 11 µM (inactive); in test [5] it was 12 µM (inactive). Also, the GI50 in test [6] was 18.8 µM (inactive); in [7] it was 17.3 µM (inactive); in test [8], 17.9 µM (inactive); in test [9], 5.43 µM (inactive); in [10], 11 µM (inactive); in test [11] it was 13.3 µM (inactive). Further, the GI50 in test [12] is 13.4 µM (inactive); in test [14], 17.9 µM (inactive); in test [15] it was > 10 µM (inactive); in test [19], 13.7 µM (inactive); in test [16], 10.4 µM (inactive).

As for `OCc1c2c(cc3c1CC1(C3)Cc3cc4c(c(CO)c3C1)CCC4)CCC2`, the GI50 in test [17] is 15.1 µM (inactive); in test [1] it was 14.6 µM (inactive); in test [2], 16.4 µM (inactive); in test [18], 24.3 µM (inactive); in test [3] it was 15.1 µM (inactive); in test [4] it was 15.3 µM (inactive). Also, the GI50 in test [5] was 20.6 µM (inactive); in [6], 13.1 µM (inactive); in test [7] it was 11.6 µM (inactive); in test [8], 10.3 µM (inactive); in test [10] it was 18 µM (inactive); in [11], 13.6 µM (inactive). The GI50 in test [12] is 15.1 µM (inactive); in test [13], 17.4 µM (inactive); in [19], 15.2 µM (inactive); in [16] it was 5.81 µM (inactive).

On to `CC(C)(C)c1cc2c(c(C(C)(C)C)c1O)CC(=O)O2`, for which the GI50 was 21.1 µM (inactive) in test [17]; 30.8 µM (inactive) in test [1]; 20.7 µM (inactive) in [2]; 22.2 µM (inactive) in [18]; 34.9 µM (inactive) in test [3]; 27 µM (inactive) in [5]. For the same compound, the GI50 in [6] is 19.8 µM (inactive); in [7], 24.6 µM (inactive); in test [8], 22.8 µM (inactive); in test [10], 25.8 µM (inactive); in test [11], 30.1 µM (inactive); in test [12], 38.5 µM (inactive). Besides, the GI50 in test [13] was 23.2 µM (inactive); in [14], 44.4 µM (inactive); in test [15], 42.4 µM (inactive); in test [19], 24.5 µM (inactive); in test [16] it was 17.1 µM (inactive).

For `Cc1ccc(S(=O)(=O)NC(=O)C2=C3SCCN3C(=O)N(S(=O)(=O)c3ccc(C)cc3)C2c2ccccc2)cc1` (stereo unspecified), the GI50 in test [17] is > 100 µM (inactive); in [1] it was > 100 µM (inactive); in [2] it was 28.2 µM (inactive); in test [18] it was 19.9 µM (inactive); in test [4] it was 40.6 µM (inactive); in test [5], 22.9 µM (inactive). Besides, the GI50 is 40.6 µM (inactive) in [6]; 78.5 µM (inactive) in test [7]; > 100 µM (inactive) in test [8]; 43.4 µM (inactive) in test [9]; 31.4 µM (inactive) in test [20]; 61 µM (inactive) in test [10]. In addition, the GI50 in [11] was 36.1 µM (inactive); in test [12], 39.4 µM (inactive); in test [13], 25.6 µM (inactive); in [14], 32.3 µM (inactive); in [15], 47.3 µM (inactive); in [19], 36.6 µM (inactive).

With `Nc1ccc2c(SCCSc3c4ccccc4nc4cc(N)ccc34)c3ccccc3nc2c1`, the GI50 in test [17], in test [1], in [2], in test [18], in test [4] and in test [5] was > 100 µM (inactive) each time. The GI50 in [6] is 94.2 µM (inactive); in [7], > 100 µM (inactive); in test [8], 55.7 µM (inactive); in test [9], > 100 µM (inactive); in test [20], 23 µM (inactive); in [10] it was > 100 µM (inactive). The GI50 is 57.4 µM (inactive) in test [11]; > 100 µM (inactive) in test [12]; > 100 µM (inactive) in test [13]; > 100 µM (inactive) in test [14]; > 100 µM (inactive) in test [15]; > 100 µM (inactive) in test [19]. For the same compound, the GI50 in [16] was > 100 µM (inactive).

On to `COC(=O)C1=CCC[C@H]2[C@@]1(COC(C)=O)CC[C@@H](C)[C@]2(C)CC(=O)c1ccoc1`, for which the GI50 in test [17] was 14.7 µM (inactive); in [1], 24.3 µM (inactive); in [2] it was 14.4 µM (inactive); in [18], 12.2 µM (inactive); in [3], 16.5 µM (inactive); in test [5], 16.7 µM (inactive). Besides, the GI50 in test [6] is 13.8 µM (inactive); in test [7] it was 18.7 µM (inactive); in test [8] it was 16.9 µM (inactive); in test [9], 12.7 µM (inactive); in test [10] it was 23.5 µM (inactive); in test [11], 9.91 µM (inactive). Further, the GI50 in [12] was 10.8 µM (inactive); in test [13] it was 10.9 µM (inactive); in test [14], 27.2 µM (inactive); in [15], 21.1 µM (inactive); in test [19], 17.2 µM (inactive); in test [16] it was 8.89 µM (inactive).

Consider `N#Cc1cc(Sc2ccc(N)c(C#N)c2)ccc1N`, for which the GI50 is 13.3 µM (inactive) in test [17]; 16 µM (inactive) in test [1]; 8.63 µM (inactive) in test [2]; 8.59 µM (inactive) in [18]; 4.03 µM (inactive) in [3]; 2.8 µM (inactive) in test [4]. In addition, the GI50 is 2.55 µM (inactive) in [5]; 26.9 µM (inactive) in [7]; 31.2 µM (inactive) in [8]; 11.9 µM (inactive) in [10]; 12.1 µM (inactive) in test [11]; 15.8 µM (inactive) in test [12]. Besides, the GI50 was 11.1 µM (inactive) in test [13]; 18 µM (inactive) in test [14]; 13.3 µM (inactive) in [15]; 40.7 µM (inactive) in [19]; 15.3 µM (inactive) in test [16].

Take `N#CC(Cl)CS(=O)(=O)c1ccccc1` (stereo unspecified): the GI50 was 18.6 µM (inactive) in [1]; 17.5 µM (inactive) in [2]; 1.75 µM (inactive) in test [18]; 8.09 µM (inactive) in test [3]; 2.07 µM (inactive) in test [4]; 17.1 µM (inactive) in test [5]. The GI50 in test [6] was 16.3 µM (inactive); in test [7] it was 7.14 µM (inactive); in [8], 4.41 µM (inactive); in test [9], 15.2 µM (inactive); in [20], 1.8 µM (inactive); in [10], 4.76 µM (inactive). The GI50 in test [11] was 4.34 µM (inactive); in test [12], 7.14 µM (inactive); in test [13] it was 14.9 µM (inactive); in [14], 11 µM (inactive); in test [15], 1.68 µM (inactive); in [19], 19.7 µM (inactive). For the same compound, the GI50 in test [16] was 15.8 µM (inactive).

As to `CCC1C(c2cc(OC)c(OC)c(OC)c2)c2cc3c(cc2OC1N1CCOCC1)OCO3` (stereo unspecified), the GI50 is 5.61 µM (inactive) in test [17]; 14.2 µM (inactive) in test [1]; 4.22 µM (inactive) in test [18]; 0.977 µM (active) in test [3]; 13.2 µM (inactive) in test [4]; 14.6 µM (inactive) in [7]. Further, the GI50 was 3.99 µM (inactive) in [8]; 9.4 µM (inactive) in test [9]; 3.18 µM (inactive) in test [20]; 4.12 µM (inactive) in [10]; 3.68 µM (inactive) in test [11]; 2.48 µM (inactive) in test [12]. The GI50 in test [14] was 10.5 µM (inactive); in test [15] it was 1.98 µM (inactive); in [19], 15.8 µM (inactive); in [16], 1.44 µM (inactive).
